Patent US4016167A, “N-Substituted-6,8-dioxamorphinans” (Bristol-Myers Company, priority 1975, dated 1977)
Counter-ions that a name gives are not always drawn.

Experiments:
[1] = system: phenylquinone induced writhings; assay: Phenylquinone writhing, mouse s.c. (agonist activity); format: in vivo; details: 50 percent reduction in number of phenylquinone induced writhings, tested as salts, reported as free base; for ED50 Agonist Activity, Phenylquinone Writhing: tartrate; for ED50: Mus musculus, sc
Excerpt: ^1 A 50 percent reduction in number of phenylquinone induced writhings (Siegmund, E.A. et al., Proc. Soc. Biol. & Med. 95, 729; 1957).

[2] = system: Straub Tail induced by oxymorphone; assay: Antagonism of Straub Tail induced by oxymorphone in mice (antagonist activity); format: in vivo, mouse; details: antagonism of Straub Tail induced by oxymorphone (2 mg./kg. s.c.) in 50 percent of mice, reported as free base; for ED50 Antagonist Activity, Oxymorphone Straub Tail: s.c., tartrate; for ED50: Mus musculus, sc
Description: ^2 Antagonism of Straub Tail induced by oxymorphone (2 mg./kg. s.c.) in 50 percent of mice.

[3] = system: agonist or antagonist activity in mice and rats; assay: Agonist and/or antagonist activity in mice and rats, overall assessment of the testing results; format: in vivo; details: conclusion from Table I
[4] = system: analgesic effect induced by morphine; assay: Morphine antagonism, rat tail flick (antagonist activity); details: sc, read-out: ED50 Antagonist Activity, Morphine Antagonism Rat Tail Flick
[5] = prior art; cited from earlier work

SMILES	ED50 Agonist Activity, Phenylquinone Writhing [1] [mg/kg]	ED50 Antagonist Activity, Oxymorphone Straub Tail [2] [mg/kg]	ED50 [1] [mg/kg]	ED50 [2] [mg/kg]	agonist or antagonist activity (in words) [3]	ED50 [4] [mg/kg]	agonist and antagonist properties [5]
COc1ccc2c(c1)[C@]13CCN(CC4CC4)[C@H](C2)[C@@H]1OC(C)(C)OC3.O=C(O)C(O)C(O)C(=O)O (single isomer, unassigned) [(+)-XIVd, (+)-17-Cyclopropylmethyl-7,7-dimethyl-3-methoxy-6,8-dioxamorphinan-(-)-hydrogen tartrate]	> 40	> 40					
CC1(C)OCC23CCN(CC4CC4)C(Cc4ccc(O)cc42)C3O1 (single isomer, unassigned) [(+)-XVd, (+)-17,Cyclopropylmethyl-7,7-dimethyl-3-hydroxy-6,8-dioxamorphinan (-) tartrate]			> 10	> 40			
COc1ccc2c(c1)[C@]13CCN(CC4CC4)[C@H](C2)[C@@H]1OC(C)(C)OC3.O=C(O)C(O)C(O)C(=O)O (single isomer, unassigned) [(-)-XIVd, (- )-17-Cyclopropylmethyl-7,7-dimethyl-3-methoxy-6,8-dioxamorphinan-(+ )-hydrogen tartrate]	0.066	5			Outstanding	1.19	
CC1(C)OC[C@]23CCN(CC4CC4)[C@H](Cc4ccc(O)cc42)[C@@H]3O1.O=C(O)C(O)C(O)C(=O)O (single isomer, unassigned) [(-)-XVd, (- )-17-Cyclopropylmethyl-7,7-dimethyl-3-hydroxy-6,8-dioxamorphinan (+ ) tartrate]			0.005	0.09	Outstanding	0.032	
COc1ccc2c(c1)[C@]13CCN(C)[C@H](C2)[C@@H]1OCOC3 [IXa, 3-Methoxy-17-methyl-6,8-dioxamorphinan]			~5	> 20			
COc1ccc2c(c1)[C@]13CCN(C)[C@H](C2)[C@]1(C)OCOC3 [IXc, 14β,17-Dimethyl-3-methoxy-6,8-dioxamorphinan]			0.31	> 40			
COc1ccc2c(c1)[C@]13CCN(C)[C@H](C2)[C@@H]1OC(C)(C)OC3 [IXd, 3-Methoxy-7,7,17-trimethyl-6,8-dioxamorphinan]			0.63	> 40			
COc1ccc2c(c1)[C@]13CCN[C@H](C2)[C@@H]1OCOC3.O=C(O)/C=C/C(=O)O [XIIa, 3-Methoxy-6,8-dioxamorphinan hydrogen fumarate]			7.4	> 20			
COc1ccc2c(c1)[C@]13CCN[C@H](C2)[C@]1(C)OCOC3.O=C(O)/C=C/C(=O)O [XIIc, 3-Methoxy-14β-methyl-6,8-dioxamorphinan hydrogen fumarate]			2	~30			
COc1ccc2c(c1)[C@]13CCN(CC4CC4)[C@H](C2)[C@@H]1OCOC3.O=C(O)/C=C/C(=O)O [XIVa, 17-Cyclopropylmethyl-3-methoxy-6,8-dioxamorphinan hydrogen fumarate]			0.3	~15	Outstanding		
COc1ccc2c(c1)[C@]13CCN(CC4CCC4)[C@H](C2)[C@@H]1OCOC3 [XIVb, 17-Cyclobutylmethyl-3-methoxy-6,8-dioxamorphinan]			2	> 40			
COc1ccc2c(c1)[C@]13CCN(CC4CC4)[C@H](C2)[C@]1(C)OCOC3 [XIVc, 17-Cyclopropylmethyl-3-methoxy-14β-methyl-6,8-dioxamorphinan]			~5	> 40			
COc1ccc2c(c1)[C@]13CCN(CC4CC4)[C@H](C2)[C@@H]1OC(C)(C)OC3.O=C(O)/C=C/C(=O)O [XIVd, 17-Cyclopropylmethyl-7,7-dimethyl-3-methoxy-6,8-dioxamorphinan hydrogen fumarate]			0.29	~30	Outstanding		
COc1ccc2c(c1)[C@]13CCN(CC4CCC4)[C@H](C2)[C@@H]1OC(C)(C)OC3.O=C(O)/C=C/C(=O)O [XIVe, 17-Cyclobutylmethyl-7,7-dimethyl-3-methoxy-6,8-dioxamorphinan hydrogen fumarate]			6.1	> 40			
Oc1ccc2c(c1)[C@]13CCN(CC4CC4)[C@H](C2)[C@@H]1OCOC3 [XVa, 17-Cyclopropylmethyl-3-hydroxy-6,8-dioxamorphinan]			0.02	0.3	Outstanding	0.12	
O=C(O)/C=C/C(=O)O.Oc1ccc2c(c1)[C@]13CCN(CC4CCC4)[C@H](C2)[C@@H]1OCOC3 [XVb, 17-Cyclobutylmethyl-3-hydroxy-6,8-dioxamorphinan fumarate]			0.14	~15	Outstanding	~9	
C[C@@]12OCOC[C@@]13CCN(CC1CC1)[C@@H]2Cc1ccc(O)cc13.O=C(O)/C=C/C(=O)O [XVc, 17-Cyclopropylmethyl-3-hydroxy-14β-methyl-6,8-dioxamorphinan hydrogen fumarate]			0.064	0.63	Outstanding	0.1	
CC1(C)OC[C@]23CCN(CC4CC4)[C@H](Cc4ccc(O)cc42)[C@@H]3O1.O=C(O)/C=C/C(=O)O [XVd, 17-Cyclopropylmethyl-7,7-dimethyl-3-hydroxy-6,8-dioxamorphinan hydrogen fumarate]			0.009	0.16	Outstanding	0.096	
CC1(C)OC[C@]23CCN(CC4CCC4)[C@H](Cc4ccc(O)cc42)[C@@H]3O1.O=C(O)/C=C/C(=O)O [XVe, 17-Cyclobutylmethyl-7,7-dimethyl-3-hydroxy-6,8-dioxamorphinan hydrogen fumarate]			0.04	~15	Outstanding		
CN1CC[C@]23COCO[C@H]2[C@H]1Cc1ccc(O)cc13.O=C(O)/C=C/C(=O)O [Xa, 3-Hydroxy-17-methyl-6,8-dioxamorphinan fumarate]			0.3	> 40			
CN1CC[C@]23COCO[C@@]2(C)[C@H]1Cc1ccc(O)cc13.O=C(O)/C=C/C(=O)O [Xc, 14β,17-Dimethyl-3-hydroxy-6,8-dioxamorphinan fumarate]			0.04	~40			
CN1CC[C@]23COC(C)(C)O[C@H]2[C@H]1Cc1ccc(O)cc13 [Xd, 3-Hydroxy-7,7,17-trimethyl-6,8-dioxamorphinan]			0.08	> 40			
C[C@H]1[C@H]2Cc3ccc(O)cc3[C@]1(C)CCN2CC1CC1 [cyclazocine]							both properties
